IC50 and Ki data for 60 compounds are collected here from ChEMBL document CHEMBL1130494, “Design and synthesis of a targeted set of aromatic amino acid derivatives for identification of new lead compounds” (Bioorg Med Chem Lett, 1997).

Molecules are shown by their SMILES.

Chain of Substance-P receptor (P25103 whole entry): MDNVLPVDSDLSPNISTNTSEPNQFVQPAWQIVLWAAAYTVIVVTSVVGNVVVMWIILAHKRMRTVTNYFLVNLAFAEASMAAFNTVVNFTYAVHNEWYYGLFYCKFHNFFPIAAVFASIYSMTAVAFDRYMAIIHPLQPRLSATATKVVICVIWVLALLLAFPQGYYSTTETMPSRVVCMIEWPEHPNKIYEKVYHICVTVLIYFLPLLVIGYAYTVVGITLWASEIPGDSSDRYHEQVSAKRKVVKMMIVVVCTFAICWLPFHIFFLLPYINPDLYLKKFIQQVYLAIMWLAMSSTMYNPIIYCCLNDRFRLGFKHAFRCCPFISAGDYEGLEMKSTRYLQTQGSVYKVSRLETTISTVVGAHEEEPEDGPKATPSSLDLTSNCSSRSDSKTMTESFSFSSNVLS

The first assay concerns the target T1, Gastrin/cholecystokinin type B receptor (Mus musculus, UniProt P56481).
T1 sequence (P56481 whole entry): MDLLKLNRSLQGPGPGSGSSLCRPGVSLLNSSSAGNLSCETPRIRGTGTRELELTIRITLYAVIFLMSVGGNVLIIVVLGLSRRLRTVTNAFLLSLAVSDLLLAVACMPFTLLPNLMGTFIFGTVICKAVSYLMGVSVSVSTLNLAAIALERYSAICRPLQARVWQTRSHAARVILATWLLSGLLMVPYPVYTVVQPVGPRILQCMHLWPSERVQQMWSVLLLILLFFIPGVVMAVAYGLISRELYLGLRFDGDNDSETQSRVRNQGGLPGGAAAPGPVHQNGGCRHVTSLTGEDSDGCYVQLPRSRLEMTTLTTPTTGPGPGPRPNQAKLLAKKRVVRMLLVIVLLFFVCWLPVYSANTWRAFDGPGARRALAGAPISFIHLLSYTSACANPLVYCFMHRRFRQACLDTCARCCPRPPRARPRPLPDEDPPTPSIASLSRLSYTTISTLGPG
Briefly: Concentration required for binding affinity to neuropeptide (CCK-B) receptor in mouse cerebral cortex. It counts as tissue-based.
Turning to `CC(C)CCNC(=O)[C@H](Cc1c[nH]c2ccccc12)NC(=O)OCc1ccccc1`, the IC50 amounted to 2.12 µM.

The target of a further assay is Neuromedin-B receptor (Homo sapiens, UniProt P28336). Nature of the assay: Binding affinity for human neuromedin B(hNMB) receptor expressed in CHO cells. The format is cell-based.
Chain of Neuromedin-B receptor (P28336 whole entry): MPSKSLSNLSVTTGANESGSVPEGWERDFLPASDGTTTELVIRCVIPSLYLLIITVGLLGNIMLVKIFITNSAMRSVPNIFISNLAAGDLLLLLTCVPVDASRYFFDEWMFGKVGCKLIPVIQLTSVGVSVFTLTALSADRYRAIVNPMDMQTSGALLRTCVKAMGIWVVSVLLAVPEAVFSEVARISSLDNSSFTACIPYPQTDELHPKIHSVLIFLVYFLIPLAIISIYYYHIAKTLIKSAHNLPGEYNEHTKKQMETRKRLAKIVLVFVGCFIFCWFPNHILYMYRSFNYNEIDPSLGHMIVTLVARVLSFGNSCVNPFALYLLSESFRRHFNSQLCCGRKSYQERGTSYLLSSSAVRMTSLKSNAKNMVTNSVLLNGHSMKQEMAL
`O=C(N[C@@H](Cc1c[nH]c2ccccc12)C(=O)NCCc1c[nH]c2ccccc12)OCCc1c[nH]c2ccccc12` had a Ki of 0.98 µM. Take `COC(=O)N[C@@H](Cc1c[nH]c2ccccc12)C(=O)NCCO`: the Ki is greater than 10 µM. With `CC(C)CNC(=O)[C@H](Cc1c[nH]c2ccccc12)NC(=O)OC(C)C`, the inhibition constant Ki is greater than 10 µM. On the same count and under the same terms, as for `CC(C)CCNC(=O)[C@H](Cc1c[nH]c2ccccc12)NC(=O)OCc1cnc[nH]1`, the figure is 3.9 µM. The same measure, in the same setting: as for `CC(C)OC(=O)N[C@@H](Cc1c[nH]c2ccccc12)C(=O)NCCc1c[nH]c2ccccc12`, the figure is greater than 10 µM; as for `O=C(O)CCNC(=O)[C@H](Cc1c[nH]c2ccccc12)NC(=O)OCCc1c[nH]c2ccccc12`, greater than 10 µM; as for `NCCCCOC(=O)N[C@@H](Cc1c[nH]c2ccccc12)C(=O)NCCC(=O)O`, greater than 10 µM. Still for that read-out and setting: as for `CC(C)COC(=O)N[C@@H](Cc1c[nH]c2ccccc12)C(=O)NCCCCCN`, the figure is greater than 10 µM. Regarding `NCCCCCNC(=O)[C@H](Cc1c[nH]c2ccccc12)NC(=O)OCCCCN`, the Ki is greater than 10 µM. `CC(C)CCNC(=O)[C@H](Cc1c[nH]c2ccccc12)NC(=O)OCCCCN` displayed a Ki greater than 10 µM. The compound `COC(=O)N[C@@H](Cc1c[nH]c2ccccc12)C(=O)NCCC(=O)O` displayed a Ki greater than 10 µM. On the same count and under the same terms, as for `COC(=O)N[C@@H](Cc1c[nH]c2ccccc12)C(=O)NCCc1cnc[nH]1`, the figure is greater than 10 µM; as for `CC(C)CNC(=O)[C@H](Cc1c[nH]c2ccccc12)NC(=O)OCCc1c[nH]c2ccccc12`, 3.5 µM; as for `O=C(N[C@@H](Cc1c[nH]c2ccccc12)C(=O)NCCc1c[nH]cn1)OCc1ccccc1`, greater than 10 µM. On the same count and under the same terms, under `O=C(O)COC(=O)N[C@@H](Cc1c[nH]c2ccccc12)C(=O)NCCO` stands greater than 10 µM. The same measure, in the same setting: as for `NCCCCOC(=O)N[C@@H](Cc1c[nH]c2ccccc12)C(=O)NCCc1c[nH]c2ccccc12`, the figure is 8.9 µM; as for `O=C(N[C@@H](Cc1c[nH]c2ccccc12)C(=O)NCCO)OCCc1c[nH]c2ccccc12`, greater than 10 µM; as for `COC(=O)N[C@@H](Cc1c[nH]c2ccccc12)C(=O)NCCc1ccccc1`, greater than 10 µM. `O=C(NC(Cc1c[nH]c2ccccc12)C(=O)NCCc1ccccc1)OCc1cnc[nH]1` (centres undefined) showed a Ki of 2.6 µM. For the compound `CC(C)CNC(=O)C(Cc1c[nH]c2ccccc12)NC(=O)OCc1cn(C(c2ccccc2)(c2ccccc2)c2ccccc2)cn1` (centres undefined), the Ki was 0.037 µM. Compared with the last compound, the Ki is about 70-fold lower. `O=C(N[C@@H](Cc1c[nH]c2ccccc12)C(=O)NCCc1ccccc1)OCc1ccccc1` registered a Ki of 2.6 µM. Same read-out and setting: as for `O=C(O)CCNC(=O)[C@H](Cc1c[nH]c2ccccc12)NC(=O)OCc1ccccc1`, the figure is greater than 10 µM.

For the compound `O=C(O)COC(=O)N[C@@H](Cc1c[nH]c2ccccc12)C(=O)NCCc1ccccc1`, the inhibition constant (Ki) was greater than 10 µM. Same read-out and setting: as for `CC(C)CNC(=O)[C@H](Cc1c[nH]c2ccccc12)NC(=O)OCc1c[nH]cn1`, the figure is greater than 10 µM. Still for that read-out and setting: under `CC(C)OC(=O)N[C@@H](Cc1c[nH]c2ccccc12)C(=O)NCCc1ccccc1` stands greater than 10 µM; under `CC(C)CNC(=O)[C@H](Cc1c[nH]c2ccccc12)NC(=O)OCC(C)C`, greater than 10 µM. Still for that read-out and setting: under `CC(C)CCNC(=O)[C@H](Cc1c[nH]c2ccccc12)NC(=O)OCC(=O)O` stands greater than 10 µM. For the compound `NCCCCOC(=O)N[C@@H](Cc1c[nH]c2ccccc12)C(=O)NCCc1cnc[nH]1`, the Ki is greater than 10 µM. Regarding `COC(=O)N[C@@H](Cc1c[nH]c2ccccc12)C(=O)NCC(C)C`, the Ki was greater than 10 µM. `O=C(N[C@@H](Cc1c[nH]c2ccccc12)C(=O)NCCc1c[nH]cn1)OCCc1c[nH]c2ccccc12` showed an inhibition constant (Ki) of 5 µM. In other words, the single-digit micromolar range. On the same count and under the same terms, under `COC(=O)N[C@@H](Cc1c[nH]c2ccccc12)C(=O)NCCC(C)C` stands greater than 10 µM; under `CC(C)OC(=O)N[C@@H](Cc1c[nH]c2ccccc12)C(=O)NCCCCCN`, greater than 10 µM.

`CC(C)COC(=O)N[C@@H](Cc1c[nH]c2ccccc12)C(=O)NCCc1cnc[nH]1` displayed a Ki greater than 10 µM. The same measure, in the same setting: as for `CC(C)OC(=O)N[C@@H](Cc1c[nH]c2ccccc12)C(=O)NCCO`, the figure is greater than 10 µM; as for `NCCCCOC(=O)N[C@@H](Cc1c[nH]c2ccccc12)C(=O)NCCO`, greater than 10 µM; as for `O=C(N[C@@H](Cc1c[nH]c2ccccc12)C(=O)NCCO)OCc1ccccc1`, greater than 10 µM. In the case of `O=C(N[C@@H](Cc1c[nH]c2ccccc12)C(=O)NCCc1ccccc1)OCCc1c[nH]c2ccccc12`, the Ki was determined as 1.1 µM.

With `CC(C)COC(=O)N[C@@H](Cc1c[nH]c2ccccc12)C(=O)NCCc1ccccc1`, the Ki amounted to 4.3 µM. The same measure, in the same setting: under `O=C(N[C@@H](Cc1c[nH]c2ccccc12)C(=O)NCCc1c[nH]c2ccccc12)OCc1c[nH]cn1` stands 3.7 µM. On the same count and under the same terms, as for `CC(C)COC(=O)N[C@@H](Cc1c[nH]c2ccccc12)C(=O)NCCO`, the figure is greater than 10 µM; as for `CC(C)CCNC(=O)C(Cc1c[nH]c2ccccc12)NC(=O)OCc1c[nH]cn1` (centres undefined), 3.9 µM. Same read-out and setting: as for `CC(C)CCNC(=O)[C@H](Cc1c[nH]c2ccccc12)NC(=O)OCc1ccccc1`, the figure is 6.1 µM; as for `CC(C)OC(=O)N[C@@H](Cc1c[nH]c2ccccc12)C(=O)NCCc1c[nH]cn1`, greater than 10 µM. `CC(C)CNC(=O)[C@H](Cc1c[nH]c2ccccc12)NC(=O)OCc1ccccc1` returned a Ki greater than 10 µM. Still for that read-out and setting: under `NCCCCCNC(=O)[C@H](Cc1c[nH]c2ccccc12)NC(=O)OCC(=O)O` stands greater than 10 µM; under `CC(C)CNC(=O)[C@H](Cc1c[nH]c2ccccc12)NC(=O)OCCCCN`, greater than 10 µM; under `O=C(N[C@@H](Cc1c[nH]c2ccccc12)C(=O)NCCc1ccccc1)OCc1c[nH]cn1`, 2.7 µM. Same read-out and setting: as for `NCCCCCNC(=O)[C@H](Cc1c[nH]c2ccccc12)NC(=O)OCCc1c[nH]c2ccccc12`, the figure is 7.8 µM; as for `CC(C)CCNC(=O)[C@H](Cc1c[nH]c2ccccc12)NC(=O)OCC(C)C`, greater than 10 µM; as for `COC(=O)N[C@@H](Cc1c[nH]c2ccccc12)C(=O)NCCc1c[nH]c2ccccc12`, greater than 10 µM. `NCCCCCNC(=O)[C@H](Cc1c[nH]c2ccccc12)NC(=O)OCc1ccccc1` had a Ki greater than 10 µM. Same read-out and setting: as for `CC(C)OC(=O)N[C@@H](Cc1c[nH]c2ccccc12)C(=O)NCCC(=O)O`, the figure is greater than 10 µM; as for `CC(C)COC(=O)N[C@@H](Cc1c[nH]c2ccccc12)C(=O)NCCC(=O)O`, greater than 10 µM. On the same count and under the same terms, under `O=C(O)COC(=O)N[C@@H](Cc1c[nH]c2ccccc12)C(=O)NCCc1c[nH]c2ccccc12` stands greater than 10 µM; under `NCCCCOC(=O)N[C@@H](Cc1c[nH]c2ccccc12)C(=O)NCCc1ccccc1`, greater than 10 µM; under `CC(C)CNC(=O)[C@H](Cc1c[nH]c2ccccc12)NC(=O)OCC(=O)O`, greater than 10 µM. In turn, `CC(C)CCNC(=O)[C@H](Cc1c[nH]c2ccccc12)NC(=O)OCCc1c[nH]c2ccccc12` showed a Ki of 2.7 µM.

Take `CC(C)CCNC(=O)[C@H](Cc1c[nH]c2ccccc12)NC(=O)OC(C)C`: the Ki was greater than 10 µM. With `CC(C)COC(=O)N[C@@H](Cc1c[nH]c2ccccc12)C(=O)NCCc1c[nH]c2ccccc12`, the affinity corresponds to a Ki of 4.7 µM. This lies in the single-digit micromolar range. Regarding `COC(=O)N[C@@H](Cc1c[nH]c2ccccc12)C(=O)NCCCCCN`, the Ki is greater than 10 µM.

The next assay concerns the target T2, Substance-K receptor (Mesocricetus auratus, UniProt P51144).
T2 sequence (P51144 whole entry): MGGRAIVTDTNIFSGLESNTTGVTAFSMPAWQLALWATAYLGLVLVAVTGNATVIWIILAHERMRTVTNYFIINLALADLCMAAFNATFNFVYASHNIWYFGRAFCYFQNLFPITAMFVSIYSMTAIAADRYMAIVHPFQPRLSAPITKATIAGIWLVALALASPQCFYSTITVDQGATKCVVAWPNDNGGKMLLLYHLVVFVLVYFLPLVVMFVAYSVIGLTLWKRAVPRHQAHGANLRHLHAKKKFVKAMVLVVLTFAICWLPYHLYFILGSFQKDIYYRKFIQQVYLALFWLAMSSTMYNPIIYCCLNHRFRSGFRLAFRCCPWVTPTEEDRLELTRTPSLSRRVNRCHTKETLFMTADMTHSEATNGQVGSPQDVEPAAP
Briefly: Concentration required for binding affinity to neurokinin (NK2) receptor in hamster urinary bladder.
Take `O=C(N[C@@H](Cc1c[nH]c2ccccc12)C(=O)NCCc1ccccc1)OCc1ccccc1`: the IC50 was 3.27 µM.

Another assay concerns the target Substance-P receptor (Homo sapiens, UniProt P25103). Nature of the assay: Concentration required for binding affinity to neurokinin (NK1) receptor in human IM9 cells. It counts as cell-based, IM-9.
Turning to `CC(C)COC(=O)N[C@@H](Cc1c[nH]c2ccccc12)C(=O)NCCc1c[nH]c2ccccc12`, the IC50 amounted to 0.43 µM.

The next assay deals with T3, Neuromedin-K receptor (Homo sapiens, UniProt P29371).
T3 sequence (P29371 whole entry): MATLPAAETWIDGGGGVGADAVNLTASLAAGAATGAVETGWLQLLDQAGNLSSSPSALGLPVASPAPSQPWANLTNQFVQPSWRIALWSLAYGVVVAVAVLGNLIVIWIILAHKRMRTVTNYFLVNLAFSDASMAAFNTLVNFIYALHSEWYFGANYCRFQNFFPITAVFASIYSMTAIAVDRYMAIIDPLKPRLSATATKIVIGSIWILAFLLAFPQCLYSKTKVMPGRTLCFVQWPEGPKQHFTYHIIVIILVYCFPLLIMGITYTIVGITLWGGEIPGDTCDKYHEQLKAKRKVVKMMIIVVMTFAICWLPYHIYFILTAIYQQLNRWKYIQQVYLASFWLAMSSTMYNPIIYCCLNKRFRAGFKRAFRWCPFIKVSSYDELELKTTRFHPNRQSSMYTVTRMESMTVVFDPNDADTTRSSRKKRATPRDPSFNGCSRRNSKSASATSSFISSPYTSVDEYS
Briefly: Concentration required for binding affinity to Tachykinin receptor 3 in chinese hamster ovary cells. It counts as cell-based, CHO.
`CC(C)OC(=O)N[C@@H](Cc1c[nH]c2ccccc12)C(=O)NCCc1c[nH]c2ccccc12`: the IC50 stood at 9.42 µM.
